Earlier results on 1 molecule are cited in patent US5028528A, “Analytical element for theophylline determination using buffer in a subbing zone” (Eastman Kodak Company, priority 1988, dated 1991).

For this series the following is noted: in a patient.

SMILES strings stand for the structures.

With `Cn1c(=O)c2[nH]cnc2n(C)c1=O` [Theophylline], the “therapeutic range of use” value is 1 to 2 mg/dL.
